The values that follow come from patent US20220401564A1 (DANA-FARBER CANCER INSTITUTE, INC., priority 2019, published 2022).

In one test the target is HDAC3 (Homo sapiens, UniProt O15379). Description: Change in cellular protein abundance (TMT proteomics) in Kelly cells. Type of test: cell-based. On the set-up: relative change in relative protein abundance with treatment of Kelly cells; endogenous in cells; host or cells: Kelly cells. As to the method: (§1) Lysis buffer (8 M Urea, 50 mM NaCl, 50 mM 4-(2hydroxyethyl)-1-piperazineethanesulfonic acid (EPPS) pH 8.5, protease and phosphatase inhibitors from Roche®) were added to the cell pellets and homogenized by 20 passes through a 21 gauge (1.25 in. long) needle to achieve a cell lysate with a protein concentration between 1-4 mg mL-1. A micro-BCA assay (Pierce™) was used to determine the final protein concentration in the cell lysate. 200 μg of protein for each sample were reduced and alkylated as described in Donovan et al., Elife 7:e38430 (2018).
HDAC3, sequence (O15379 whole entry): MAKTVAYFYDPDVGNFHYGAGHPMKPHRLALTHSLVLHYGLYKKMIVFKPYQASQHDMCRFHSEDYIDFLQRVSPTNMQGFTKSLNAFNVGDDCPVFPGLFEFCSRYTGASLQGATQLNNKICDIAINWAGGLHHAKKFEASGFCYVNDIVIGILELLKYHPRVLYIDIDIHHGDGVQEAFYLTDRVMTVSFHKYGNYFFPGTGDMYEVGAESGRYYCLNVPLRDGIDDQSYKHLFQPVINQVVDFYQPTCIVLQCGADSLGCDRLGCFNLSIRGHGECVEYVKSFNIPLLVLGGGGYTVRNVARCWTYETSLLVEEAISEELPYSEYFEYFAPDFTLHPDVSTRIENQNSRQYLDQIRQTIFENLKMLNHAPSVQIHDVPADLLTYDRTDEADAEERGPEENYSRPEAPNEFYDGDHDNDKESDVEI
Proteins were precipitated using methanol/chloroform. Four volumes of methanol were added to the cell lysate, followed by one volume of chloroform, and finally three volumes of water. The mixture was vortexed and centrifuged to separate the chloroform phase from the aqueous phase. The precipitated protein was washed with three volumes of methanol, centrifuged and the resulting washed precipitated protein was allowed to air dry. The precipitated protein was resuspended in 4 M Urea, 50 mM HEPES pH 7.4, followed by dilution to 1 M urea with the addition of 200 mM EPPS, pH 8. Proteins were first digested with LysC (1:50; enzyme:protein) for 12 hours at room temperature. The LysC digestion was diluted to 0.5 M Urea with 200 mM EPPS pH 8 followed by digestion with trypsin (1:50; enzyme:protein) for 6 hours at 37° C. Tandem mass tag (TMT) reagents (Thermo Fisher Scientific) were dissolved in anhydrous acetonitrile (ACN) according to manufacturer's instructions.
Anhydrous ACN was added to each peptide sample to a final concentration of 30% v/v, and labeling was induced with the addition of TMT reagent to each sample at a ratio of 1:4 peptide:TMT label. The 10-plex labeling reactions were performed for 1.5 hours at room temperature and the reaction quenched by the addition of hydroxylamine to a final concentration of 0.3% for 15 minutes at room temperature. The sample channels were combined at a 1:1:1:1:1:1:1:1:1:1:1 ratio, desalted using Cis solid phase extraction cartridges (Waters®) and analyzed by LC-MS for channel ratio comparison. Samples were then combined using the adjusted volumes determined in the channel ratio analysis and dried down in a speed vacuum. The combined sample was then resuspended in 1% formic acid, and acidified (pH 2-3) before being subjected to desalting with C18 SPE (Sep-Pak®, Waters®). Samples were then offline fractionated into 96 fractions by high pH reverse-phase HPLC (Agilent® LC1260) through an aeris peptide xb-c18 column (Phenomenex®) with mobile phase A containing 5% acetonitrile and 10 mM NH4HCO3 in LC-MS grade H2O, and mobile phase B containing 90% acetonitrile and 10 mM NH4HCO3 in LC-MS grade H2O (both pH 8.0). The 96 resulting fractions were then pooled in a non-continuous manner into 24 fractions and these fractions were used for subsequent mass spectrometry analysis.
Data were collected using an Orbitrap Fusion™ Lumos™ mass spectrometer (Thermo Fisher Scientific, San Jose, Calif., USA) coupled with a Proxeon EASY-nLC™ 1200 LC pump (Thermo Fisher Scientific). Peptides were separated on an EasySpray™ ES803 75 μm inner diameter microcapillary column (ThermoFisher Scientific).
Each analysis used an MS3-based TMT method as described previously. The data were acquired using a mass range of m z 340-1350, resolution 120,000, automatic gain control (AGC) target 1×10^6, maximum injection time 100 ms, dynamic exclusion of 120 seconds for the peptide measurements in the Orbitrap Fusion™ Lumos™ mass spectrometer. Data dependent MS2 spectra were acquired in the ion trap with a normalized collision energy (NCE) set at 55%, AGC target set to 1.5×10^5 and a maximum injection time of 150 ms. […]

For another test, the target named is T1, VHL (Homo sapiens, UniProt P40337).
T1 construct: Cells stably expressing the BRD4BD2-GFP with mCherry reporter (40) were seeded; endogenous in cells
T1 sequence (P40337 whole entry, species assumed): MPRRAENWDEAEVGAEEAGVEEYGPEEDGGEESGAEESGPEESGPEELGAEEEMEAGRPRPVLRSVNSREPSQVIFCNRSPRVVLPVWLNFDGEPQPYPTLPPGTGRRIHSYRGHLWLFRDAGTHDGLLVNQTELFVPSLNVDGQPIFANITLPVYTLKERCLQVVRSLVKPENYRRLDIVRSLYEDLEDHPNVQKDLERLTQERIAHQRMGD
The test can be described thus: Cellular VHL engagement assay (BRD4BD2-GFP / mCherry reporter cells). As to conditions: with 250 nM AT1, 5 h. The test is classed as cell-based. The method, then:
Cells stably expressing the BRD4BD2-GFP with mCherry reporter (40) were seeded at 30-50% confluency in 384-well plates with 50 μL per well of FluoroBrite™ DMEM media (Thermo Fisher Scientific, A18967) supplemented with 10% FBS a day before compound treatment. Compounds and 250 nM AT1((2S,4R)-1-(2R)-2-Acetamido-3-[[6-[2-[(6S)-4-(4-chlorophenyl)-2,3,9-trimethyl-6H-thieno[3,2-f][1,2,4]triazolo[4,3-a][1,4]diazepin-6-yl]acetamido]hexyl]thio]-3-methylbutanoyl]-4-hydroxy-N-[4-(4-methylthiazol-5-yl)benzyl)pyrrolidinine-2-carboxamide) were dispensed using a D300e Digital Dispenser (HP), normalized to 0.5% DMSO, and incubated with the cells for 5 h. The assay plate was imaged immediately using an Acumen® High Content Imager (TTP Labtech) with 488 nm and 561 nm lasers in a […] grid per well format. The resulting images were analyzed using CellProfiler™.
A series of image analysis steps (an ‘image analysis pipeline’) was constructed. First, the red and green channels were aligned and cropped to target the middle of each well (to avoid analysis of the heavily clumped cells at the edges). A background illumination function was calculated for both red and green channels of each well individually and subtracted to correct for illumination variations across the 384-well plate from various sources of error. An additional step was then applied to the green channel to suppress the analysis of large auto fluorescent artifacts and enhance the analysis of cell specific fluorescence by way of selecting for objects under a given size (30 A.U.) and with a given shape (speckles). mCherry-positive cells were then identified in the red channel by filtering for objects 8-60 pixels in diameter and by using intensity to distinguish between clumped objects. The green channel was then segmented into GFP positive and negative areas and objects were labeled as GFP positive if at least 40% of it overlapped with a GFP positive area. The fraction of GFP-positive cells/mCherry-positive cells in each well was then calculated, and the green and red images were rescaled for visualization.

Test [1] has as its system other identified HDAC proteins. The test can be described thus: Change in cellular protein abundance (TMT proteomics) in Kelly cells. The test is classed as cell-based, human. Conditions: 1 μM, 5 hours, vs DMSO. The method, then:
as §1
Proteins were precipitated using methanol/chloroform. Four volumes of methanol were added to the cell lysate, followed by one volume of chloroform, and finally three volumes of water. The mixture was vortexed and centrifuged to separate the chloroform phase from the aqueous phase. […]
Anhydrous ACN was added to each peptide sample to a final concentration of 30% v/v, and labeling was induced with the addition of TMT reagent to each sample at a ratio of 1:4 peptide:TMT label. […] The sample channels were combined at a 1:1:1:1:1:1:1:1:1:1:1 ratio, desalted using Cis solid phase extraction cartridges (Waters®) and analyzed by LC-MS for channel ratio comparison. Samples were then combined using the adjusted volumes determined in the channel ratio analysis and dried down in a speed vacuum. […]

By IC50 is commonly meant the concentration that inhibits the measured activity by half. Read a low IC50 as greater potency in that assay. For `Cc1ncsc1-c1ccc([C@H](C)NC(=O)[C@@H]2C[C@@H](O)CN2C(=O)[C@@H](NC(=O)CCOCCN(CCc2c[nH]c3ccccc23)Cc2ccc(/C=C/C(=O)NO)cc2)C(C)(C)C)cc1` [Compound 1, (2S,4R)-1-((S)-2-(3-(2-((2-(1H-indol-3-yl)ethyl)(4-((E)-3-(hydroxyamino)-3-oxoprop-1-en-1-yl)benzyl)amino)ethoxy)propanamido)-3,3-dimethylbutanoyl)-4-hydroxy-N—((S)-1-(4-(4-methylthiazol-5-yl)phenyl)ethyl)pyrrolidine-2-carboxamide], at HDAC3 (1 μM, 5 hours, vs DMSO), the “cellular HDAC3 protein levels, change in relative protein abundance (heat map FIG. 2)” value is “down-regulation”. Moreover, the “HDAC3 protein levels, relative protein abundance compared to DMSO control” value on HDAC3 (scatter plots FIG. 1 and FIG. 3) is “significant and selective reduction”. At VHL, this compound came in with an IC50 of 16.9 µM. Also, in test [1], the “cellular protein levels of the other identified HDAC proteins (heat map FIG. 2)” value was “did not affect”.
